Data as given in patent publication US7291601B1, “Arginine-rich anti-vascular endothelial growth factor peptides that inhibit growth and metastasis of human tumor cells by blocking angiogenesis” (Korea Greencross Corp., priority 1999, dated 2007).

What was measured:
VEGF121 = molecular target: T1, VEGF121 (Homo sapiens, UniProt P15692); test: Inhibition of labeled VEGF121 binding to its receptors; conditions: heparin-binding domain-deficient isoform, FIG. 9
T1 construct: made in house; host or cells: E. coli BL21(DE3)pLysS, inclusion bodies
T1 sequence (P15692 27-147 isoform P15692-9): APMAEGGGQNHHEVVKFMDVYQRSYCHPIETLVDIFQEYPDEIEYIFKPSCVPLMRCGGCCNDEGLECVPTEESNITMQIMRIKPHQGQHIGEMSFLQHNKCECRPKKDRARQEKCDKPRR
Text: (§1) In order to verify this postulation, Sequence 1 (RRKRRR) was examined for the common binding domain on VEGF because it inhibited the binding of VEGF to its receptors at the highest efficiency. First, appropriate primers were synthesized and used to amplify various cDNAs coding for VEGF165, VEGF121, VEFG8-121, VEGF109, and VEGF8-109 while a human liver cDNA library (Clontech) served as a template. After being inserted to plasmid pRSET A (Invitrogen), the cDNAs were sequenced. The resulting five pRSET A vectors, each having one of the five cDNAs, were introduced into an expression strain (BL21(DE3)pLysS) containing T7 RNA polymerase. […] The purified VEGFs were quantified by use of a protein assay reagent (Bio-Rad) and all found to bind to VEGF receptors and exert growth hormone activity on HUVEC. […] For use, each labeled protein was quantified by ELISA (enzyme-linked immunosorbent assay) using a mouse monoclonal anti-VEGF antibody (R&D systems).
(§2) Each peptide was examined for antagonistic activity against VEGF in the same manner as in Example 2. Referring to FIG. 9, the radioactivity measured from ^125I-labeled VEGF associated with fixed Sequence 1 (RRKRRR) (SEQ ID NO: 1) is plotted in the absence of competitors and in the presence of competitors for various VEGF isomers. […]

VEGF8-121 = molecular target: T2, VEGF8-121 (Homo sapiens, UniProt P15692); test: Inhibition of labeled VEGF8-121 binding to its receptors; conditions: FIG. 9
T2 construct: made in house; host or cells: E. coli BL21(DE3)pLysS, inclusion bodies
T2 sequence (P15692 34-147 isoform P15692-9): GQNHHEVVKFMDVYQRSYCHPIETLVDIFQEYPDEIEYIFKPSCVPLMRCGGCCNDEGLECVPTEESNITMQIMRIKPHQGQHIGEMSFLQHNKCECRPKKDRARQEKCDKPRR
Text: as §1, §2

[1] = system: HM7 (human colon carcinoma cell line); test: Liver metastasis of HM7 cells transplanted into the spleen of nude mice; type: in vivo; conditions: control group PBS only
Text: In order to conduct an experiment concerning the metastasis of cancer cells to the liver, cancerous cells were transplanted into the spleen. In this regard, after being anesthetized with diethyl ether, 4-week-old male mice (athymic nude mice, BALB/c/nu/nu, Charles River, Japan) underwent flank incision. […] Four weeks after the injection, the liver was excised from each mouse and measured for weight and the size and number of metastatic nodules formed. Each test group was composed of 6-7 mice. In a student's t-test, a p value less than 0.05 was regarded as being statistically significant. In the test using tetrazolium dye (cell titer 96 Non-radioactive Proliferation Assay Kit, Promega), each peptide was evaluated to have no influence on the growth of the cancer cells (5×10^3 cells/well), so that the possibility that the toxicity of the peptide themselves might inhibit the growth and metastasis of cancer cells could be excluded.

H-RRKRRR-NH2 [compound 8, NH2-Arg-Arg-Lys-Arg-Arg-Arg-CONH2]
inhibition of binding of labeled VEGF121 to its receptors (VEGF121): inhibited | inhibition of binding of VEGF8-121 to its receptors (VEGF8-121): not inhibited | weight of the liver, % of the control group [1]: 33% | number of metastatic nodules, % of the control group ([1]; liver): 16%
